# Laboratory results from the METLIN SMRT retention time set (Domingo-Almenara et al. 2019).
# Experiment: gradient 5% acetonitrile 3 min, to 50% in 2 min, to 85% in 15 min, held 3 min, 100 µL/min
# Conditions: column: Zorbax Extend-C18 2.1 x 50 mm; eluents: water / acetonitrile, 0.1% formic acid
# Procedure, shortened: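 The mobile phases were water and acetonitrile, each with 0.1% formic acid, pumped at 100 μL/min through a Zorbax Extend-C18 column (2.1 × 50 mm, 1.8 μm). Pure standards were injected as mixtures of ~100 molecules and detected by a quadrupole time-of-flight mass spectrometer in positive and negative ionization mode. Retention time came from computationally picked adduct peaks, each inspected by hand.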
row,SMILES,RP-LC retention time [s]
1,CN1C(=O)c2cccn2CC1C(=O)N1CCCCC1 (centres undefined),614
2,COCc1cc(=O)n(CC(=O)Nc2ccccc2C)c(N)n1,603
3,O=C(CCCc1nc(-c2cccnc2)no1)Nc1nc(-c2ccccc2)cs1,865
4,FC(F)(F)c1cccc(-c2ccc(CNC3CC3)o2)c1,695
5,Cc1ccccc1Oc1nccn2c(=O)n(CC(=O)Nc3ccccc3F)nc12,853
6,O=C(O)c1cccc(-c2noc(-c3ccccc3F)n2)c1,964
7,Cc1cnc(C(=O)N(C)C2CCc3nn(CC4CC4)c(=O)n3CC2)cn1 (centres undefined),618
8,CC12CCC3C(CC=C4CC(O)CCC43C)C1C/C(=C\N1CCCC1)C2=O (centres undefined),943
9,CC(=O)c1cccc(NC(=O)N(c2ccccc2)c2ccccc2)c1,860
10,CCOC(=O)c1cc([N+](=O)[O-])sc1NC(=O)c1ccc(Cl)s1,1310
11,CCCc1nnsc1C(=O)Nc1ccc2c(c1)CN(C(=O)c1ccco1)CC2,786
12,Cc1cccc(NC(=O)CN2CCC(COCc3ccccc3)CC2)c1C,610
13,CCn1c(CCNC(=O)c2ccc(C)cc2C)nc2cccnc21,694
14,C#CCOCC1CCN(C(=O)CC2CCCCC2)CC1,864
15,CC(C)Cn1cc(CCNC(=O)c2cc3ccccc3[nH]2)c2cccnc21,850
16,Cc1ccc(-c2cc3c(=O)n(Cc4noc(CN5CCOCC5)n4)ccn3n2)c(C)c1,792
17,O=C(NC1CC1)c1nc(-c2cccs2)cs1,835
18,CCN(CC)CCNC(=O)C1CCN(c2nc3ccccc3n3cccc23)CC1,579
19,COc1ccccc1N1C=C(C#N)S(=O)(=O)c2ccccc21,871
20,O=C(NCCC1=CCCCC1)C1CCN(C(=O)C2Sc3ccccc3NC2=O)CC1 (centres undefined),802
21,COc1ccc2c(c1)C1(CCN(C(=O)Cc3cccc(F)c3)C1)C(=O)N2 (centres undefined),740
22,COc1cc([C@@H]2c3cc4c(cc3[C@H](O)[C@@H](CO)[C@@H]2C(=O)NCCCN(C)C2CCCCC2)OCO4)cc(OC)c1OC,573
23,Cc1cc(C)cc(NC(=O)C2CCN(C(=O)C3Sc4ccccc4NC3=O)CC2)c1 (centres undefined),818
24,Cc1cc(C)cc(NC(=O)COc2cccc3c(=O)n(C)ccc23)c1,844
25,c1ccc(-c2nc(-c3cn(-c4ccccc4)nn3)no2)cc1,1020
26,CCc1onc(C)c1C1CCCN1C(=O)c1ccc(C)cc1 (centres undefined),775

row,SMILES,RP-LC retention time [s]
1,CC(C)CCNC(=O)c1ccc2nc(CCc3ccc(NC(=O)C(C)C)cc3)[nH]c2c1,676
2,O=C(Cc1ccccc1Cl)N1CCN(c2nc(CN3CCOCC3)cs2)CC1,640
3,Cc1ccc(C(C)NC(=O)C2CC(=O)N(c3cccc(NC(=O)C(C)C)c3)C2)c(C)c1 (centres undefined),868
4,CCOc1ccc(CCNC(=O)CN2C(=O)CSc3cccn3-c3ccccc32)cc1OCC,939
5,Fc1ccc(Nc2c(-c3ccccc3)nc3ccccn23)cc1,689
6,Cc1ccc(C2C=CC(C#N)=CN2Cc2ccccc2)cc1 (centres undefined),1210
7,CCS(=O)(=O)N1CC(=O)N(c2ccc(F)cc2C)C(C)(C(=O)NC2CCCCC2)C1 (centres undefined),919
8,CC(C)NC(=O)C1CCCN(c2nc3ncn(CC(=O)NCc4cccs4)c(=O)c3s2)C1 (centres undefined),660
9,CCn1cc(CCNC(=O)c2ccccc2OC)c2cccnc21,716
10,CCN(C(C)=O)c1nc(-c2ccc(Br)cc2)cs1,1170
11,Cc1noc(-c2ccnc(-n3ncc(C(=O)NCCc4c[nH]c5ccccc45)c3C)c2)n1,903
12,Cc1ccc(C(=O)NCc2nn(C)c3ccccc23)c(C)c1,857
13,Cc1cc(OCC(=O)NCc2ccc3c(c2)OCO3)nc(N2CCCC(C)C2)n1 (centres undefined),671
14,Cc1noc([C@@H]2CN(C(=O)c3cc(C4CC4)[nH]n3)C[C@H]2C(N)=O)n1,596
15,Cc1cnc(C(=O)NC2C[C@H]3CC[C@@H](C2)N3C(=O)c2sccc2C)cn1 (some centres undefined),663
16,O=C(Nc1ccc(F)cc1)N1CCN(Cc2nc3cccnc3n2-c2ccc(F)cc2)CC1,624
17,O=C(NCc1ccco1)c1ccc2c(c1)C(=O)c1ccccc1-2,749
18,Cc1cc(C)cc(Nc2nc(C)cc(=O)n2CC(=O)Nc2ccc3c(c2)OCCO3)c1,785
19,CC(=O)Oc1ccccc1C(=O)N1CCCc2ccccc21,868
20,CC1OC(Oc2c(-c3cc(O)c(O)c(O)c3)oc3cc(O)cc(O)c3c2=O)C(O)C(O)C1O (centres undefined),651
21,CC1(C)CC(O)CC(C)(C)N1[O-],578
22,FC(F)(F)c1cccc(-c2cncc(N3CCN(c4ccccn4)CC3)n2)c1,740
23,CCN1CCN(c2ccc(N3CCCC(C(=O)N4CCN(c5ccccn5)CC4)C3)nn2)CC1 (centres undefined),574
24,Cc1cc(NC(=O)c2nc(C(C)C)oc2C)ccc1Cl,1250
25,CCSc1nnc(NC(=O)Cc2csc(NC(=O)c3ccc4c(c3)OCO4)n2)s1,804

# Other lines, results leading:
row,RP-LC retention time [s],SMILES
1,898,O=C(Cn1cccc1-c1nnc(C2CCC2)o1)N1CCN(c2ccccc2)CC1
2,840,COc1ccc(NC(=O)C2CCN(S(=O)(=O)c3ccc4c(c3)sc(=O)n4C)CC2)c(OC)c1
3,720,COCCOc1ccc(C(=O)N2CCNC(=O)C2CC(=O)OC2CCCCC2)cc1 (centres undefined)
4,828,COCCNC(=O)c1ccc(-n2nc(Sc3ccc(Cl)cc3)ccc2=O)cc1
5,975,Cn1cnc2c(C(=O)NC3CCCCC3)nn(-c3cccc(Cl)c3)c2c1=O
6,945,Cc1sc(-c2noc(C3CC3)n2)cc1S(=O)(=O)N1CCC(C(=O)NCc2ccco2)CC1
7,1110,CCn1c(=O)c2ccccc2n(Cc2nc(-c3ccc(Br)cc3)no2)c1=O
8,621,Cc1cc(C)c2c(N3CCCCC3)nc(C(=O)NCC3CCCO3)nc2n1 (centres undefined)
9,1040,COc1ccc(OCc2nc(-c3ccc(NS(=O)(=O)c4cccs4)cc3)no2)cc1
10,1080,COc1ccc(NC(=O)c2noc3c2CCCCC3)c(OC)c1
11,759,O=C(Nc1ccc2c(c1)OCO2)C1CCCN(c2ncnc3c2nc2n3CCCCC2)C1 (centres undefined)
12,788,COc1cccc(C(=O)NC(c2ccccc2)c2nnc(N3CCCC3)o2)c1 (centres undefined)
13,670,CN1CCCN(c2ccc(NC(=O)c3ccc(Br)cc3)c(C(=O)O)c2)CC1
14,976,O=C(Nc1nccs1)C1CCN(c2nc(-c3ccc(Cl)cc3)no2)CC1
15,812,O=C1CCCC2=C1C(c1ccccc1Cl)C1=C(CCCC1=O)O2
16,1130,COc1ccc(-c2ncc3c(=O)n(Cc4cccc(OC)c4)c(=O)n(C)c3n2)cc1
17,854,CC(=O)Oc1ccc2c(=O)c(Oc3ccc([N+](=O)[O-])cc3)c(C)oc2c1
18,824,Cc1ccc(S(=O)(=O)Nc2ccc(C3(C(=O)NCC4CCCO4)CC3)cc2)cc1 (centres undefined)
19,964,CCN(Cc1ccccc1)C(=O)CSc1cc(N2CCN(c3ccc(OC)cc3)CC2)ncn1

row,RP-LC retention time [s],SMILES
1,685,CCN1CCCC1CNC(=O)CCc1nc(-c2ccc(N3CCCC3)cc2)no1 (centres undefined)
2,747,CN(C)S(=O)(=O)c1ccc(C(=O)N2CCC(c3nnc(C(F)(F)F)o3)CC2)cc1
3,746,Cc1noc(-c2ccc(N3CCCC(C(=O)NC(C)c4ccco4)C3)nc2)n1 (centres undefined)
4,1380,CCCc1ccc(S(=O)(=O)N2CCCC2c2nc(-c3ccc(Cl)cc3)no2)cc1 (centres undefined)
5,883,Cc1noc(-c2ccc(-n3cnc(C(=O)NC4CCCCC4)c3)nc2)n1
6,751,CCS(=O)(=O)N1CCCN(C2=NS(=O)(=O)C(c3ccccc3)=C2C)CC1
7,738,Cc1ccccc1S(=O)(=O)N1CCC(n2cnnc2C(C)C)CC1
8,784,CCOc1ccc(NC(=O)C2CCN(S(=O)(=O)c3cn(CC)cn3)CC2)cc1
9,699,O=C(Nc1ccc(-c2nnc3n2CCCC3)cc1)C1CCCCC1
10,1310,CCCOc1ccc(-c2noc(Cc3nc(-c4ccc5c(c4)OCO5)cs3)n2)cc1
11,894,Cc1nn(-c2ccccc2)c(C)c1S(=O)(=O)N1CCC(C(=O)NC(C)(C)C)CC1
12,1210,COc1ccc(-c2nnc(-c3ccc(Cl)c(S(=O)(=O)N4CCCCCC4)c3)o2)cc1
13,1280,COc1ccc(-c2nnc(-c3cccnc3N3CCN(c4ccccc4C)CC3)o2)cc1
14,992,Cc1ccc(-c2csc(NC(=O)COc3cc(C)ccc3C(C)C)n2)cc1
15,744,Cc1oc(C2CCN(C(=O)Nc3ccc(F)cc3F)CC2)nc1C(=O)N1CCCC1
16,721,Cc1cc2c(cc1S(=O)(=O)N1CCCC1C(=O)NCc1ccccc1)OCC(=O)N2 (centres undefined)
17,786,COc1ccc(CC(=O)N2CCN(S(=O)(=O)c3cc4c5c(c3)CCC(=O)N5CCC4)CC2)cc1
18,592,CCn1cnc(S(=O)(=O)N2CCC(C(=O)Nc3ccc(C)cn3)CC2)c1
19,657,NS(=O)(=O)c1ccc(NC(=O)NC2CC(=O)N(c3ccc(Cl)cc3)C2)cc1 (centres undefined)
